Laboratory results: US12661345B2, “Compositions for the treatment of hypertension” (The George Institute for Global Health, priority 2017, dated 2026)

System: participants with migraine
Test: Safety: serious adverse events and adverse events of special interest in the 3×3 factorial trial
[1] = Anytime between Week 0 to Week 12, % of participants
[2] = Anytime between Week 0 to Week 12, n/N participants
[3] = Randomization, % of participants
[4] = Randomization, n/N participants

CCC(C)(C)C(=O)O[C@H]1C[C@@H](C)C=C2C=C[C@H](C)[C@H](CC[C@@H]3C[C@@H](O)CC(=O)O3)[C@H]21 [Simvastatin, simvastatin]
9/9: Headache [2] | Headache [4] | Headache (Week 4, n/N participants) | Headache (Week 13, n/N participants)
(77.8%): Headache (Week 16, % of participants)
0.0%: Subjects with any serious adverse event (SAE) in 12 weeks (percent) (12 weeks)
(22.2%): Gastrointestinal complaints [1] | Insomnia [1] | Feeling faint/dizziness [3] | Insomnia [3] | Muscle cramps [3] | Feeling faint/dizziness (Week 4, % of participants) | Insomnia (Week 4, % of participants) | Insomnia (Week 8, % of participants) | Gastrointestinal complaints (Week 12, % of participants) | Insomnia (Week 12, % of participants) | Muscle cramps (Week 13, % of participants) | Feeling faint/dizziness (Week 16, % of participants)
7/9: Headache (Week 16, n/N participants)
8/9: Headache (Week 8, n/N participants) | Headache (Week 12, n/N participants)
3/9: Feeling faint/dizziness [2] | Flushing [4]
(100.0%): Headache [1] | Headache [3] | Headache (Week 4, % of participants) | Headache (Week 13, % of participants)
2/9: Gastrointestinal complaints [2] | Insomnia [2] | Feeling faint/dizziness [4] | Insomnia [4] | Muscle cramps [4] | Feeling faint/dizziness (Week 4, n/N participants) | Insomnia (Week 4, n/N participants) | Insomnia (Week 8, n/N participants) | Gastrointestinal complaints (Week 12, n/N participants) | Insomnia (Week 12, n/N participants) | Muscle cramps (Week 13, n/N participants) | Feeling faint/dizziness (Week 16, n/N participants)
1/9: Flushing [2] | Muscle cramps [2] | Nightmares [2] | Skin rash/itching [2] | Falls [4] | Nightmares [4] | Flushing (Week 4, n/N participants) | Gastrointestinal complaints (Week 4, n/N participants) | Feeling faint/dizziness (Week 8, n/N participants) | Flushing (Week 8, n/N participants) | Gastrointestinal complaints (Week 8, n/N participants) | Muscle cramps (Week 12, n/N participants) | Nightmares (Week 12, n/N participants) | Skin rash/itching (Week 12, n/N participants) | Feeling faint/dizziness (Week 13, n/N participants) | Gastrointestinal complaints (Week 13, n/N participants) | Insomnia (Week 13, n/N participants) | Myalgia (Week 13, n/N participants) | Nightmares (Week 13, n/N participants) | Skin rash/itching (Week 13, n/N participants) | Any SAEs since the last visit? (Week 16, n/N participants) | Falls (Week 16, n/N participants)
(0.0%): Any SAEs [1] | Bradycardia [1] | Falls [1] | Gout [1] | Myalgia [1] | Pedal edema [1] | Syncope [1] | Any SAEs since the last visit? [3] | Bradycardia [3] | Gastrointestinal complaints [3] | Gout [3] | Myalgia [3] | Pedal edema [3] | Skin rash/itching [3] | Syncope [3] | Any SAEs since the last visit? (Week 4, % of participants) | Bradycardia (Week 4, % of participants) | Falls (Week 4, % of participants) | Gout (Week 4, % of participants) | Muscle cramps (Week 4, % of participants) | Myalgia (Week 4, % of participants) | Nightmares (Week 4, % of participants) | Pedal edema (Week 4, % of participants) | Skin rash/itching (Week 4, % of participants) | Syncope (Week 4, % of participants) | Any SAEs since the last visit? (Week 8, % of participants) | Bradycardia (Week 8, % of participants) | Falls (Week 8, % of participants) | Gout (Week 8, % of participants) | Muscle cramps (Week 8, % of participants) | Myalgia (Week 8, % of participants) | Nightmares (Week 8, % of participants) | Pedal edema (Week 8, % of participants) | Skin rash/itching (Week 8, % of participants) | Syncope (Week 8, % of participants) | Any SAEs since the last visit? (Week 12, % of participants) | Bradycardia (Week 12, % of participants) | Falls (Week 12, % of participants) | Feeling faint/dizziness (Week 12, % of participants) | Flushing (Week 12, % of participants) | Gout (Week 12, % of participants) | Myalgia (Week 12, % of participants) | Pedal edema (Week 12, % of participants) | Syncope (Week 12, % of participants) | Any SAEs since the last visit? (Week 13, % of participants) | Bradycardia (Week 13, % of participants) | Falls (Week 13, % of participants) | Flushing (Week 13, % of participants) | Gout (Week 13, % of participants) | Pedal edema (Week 13, % of participants) | Rebound hypertension (Week 13, % of participants) | Syncope (Week 13, % of participants) | Bradycardia (Week 16, % of participants) | Muscle cramps (Week 16, % of participants) | Pedal edema (Week 16, % of participants) | Syncope (Week 16, % of participants)
(11.1%): Flushing [1] | Muscle cramps [1] | Nightmares [1] | Skin rash/itching [1] | Falls [3] | Nightmares [3] | Flushing (Week 4, % of participants) | Gastrointestinal complaints (Week 4, % of participants) | Feeling faint/dizziness (Week 8, % of participants) | Flushing (Week 8, % of participants) | Gastrointestinal complaints (Week 8, % of participants) | Muscle cramps (Week 12, % of participants) | Nightmares (Week 12, % of participants) | Skin rash/itching (Week 12, % of participants) | Feeling faint/dizziness (Week 13, % of participants) | Gastrointestinal complaints (Week 13, % of participants) | Insomnia (Week 13, % of participants) | Myalgia (Week 13, % of participants) | Nightmares (Week 13, % of participants) | Skin rash/itching (Week 13, % of participants) | Any SAEs since the last visit? (Week 16, % of participants) | Falls (Week 16, % of participants)
(88.9%): Headache (Week 8, % of participants) | Headache (Week 12, % of participants)
0/9: Subjects with any serious adverse event (SAE) in 12 weeks (n/N) (12 weeks) | Any SAEs [2] | Bradycardia [2] | Falls [2] | Gout [2] | Myalgia [2] | Pedal edema [2] | Syncope [2] | Any SAEs since the last visit? [4] | Bradycardia [4] | Gastrointestinal complaints [4] | Gout [4] | Myalgia [4] | Pedal edema [4] | Skin rash/itching [4] | Syncope [4] | Any SAEs since the last visit? (Week 4, n/N participants) | Bradycardia (Week 4, n/N participants) | Falls (Week 4, n/N participants) | Gout (Week 4, n/N participants) | Muscle cramps (Week 4, n/N participants) | Myalgia (Week 4, n/N participants) | Nightmares (Week 4, n/N participants) | Pedal edema (Week 4, n/N participants) | Skin rash/itching (Week 4, n/N participants) | Syncope (Week 4, n/N participants) | Any SAEs since the last visit? (Week 8, n/N participants) | Bradycardia (Week 8, n/N participants) | Falls (Week 8, n/N participants) | Gout (Week 8, n/N participants) | Muscle cramps (Week 8, n/N participants) | Myalgia (Week 8, n/N participants) | Nightmares (Week 8, n/N participants) | Pedal edema (Week 8, n/N participants) | Skin rash/itching (Week 8, n/N participants) | Syncope (Week 8, n/N participants) | Any SAEs since the last visit? (Week 12, n/N participants) | Bradycardia (Week 12, n/N participants) | Falls (Week 12, n/N participants) | Feeling faint/dizziness (Week 12, n/N participants) | Flushing (Week 12, n/N participants) | Gout (Week 12, n/N participants) | Myalgia (Week 12, n/N participants) | Pedal edema (Week 12, n/N participants) | Syncope (Week 12, n/N participants) | Any SAEs since the last visit? (Week 13, n/N participants) | Bradycardia (Week 13, n/N participants) | Falls (Week 13, n/N participants) | Flushing (Week 13, n/N participants) | Gout (Week 13, n/N participants) | Pedal edema (Week 13, n/N participants) | Rebound hypertension (Week 13, n/N participants) | Syncope (Week 13, n/N participants) | Bradycardia (Week 16, n/N participants) | Muscle cramps (Week 16, n/N participants) | Pedal edema (Week 16, n/N participants) | Syncope (Week 16, n/N participants)
(33.3%): Feeling faint/dizziness [1] | Flushing [3]
